Experiment [1] concerns the target T1, full-length HAQ STING (Homo sapiens, UniProt Q86WV6, G230A/H232R/R293Q/R71H).
T1 construct: AviTag (after GG linker) (C); HRV3C cleavage site (after GS linker) (C); HIS8 (C); made in house; host or cells: Trichoplusia ni (Hi-Five) insect cells infected with baculovirus (virus generated and amplified in Sf21 cells); used as a washed membrane preparation
Kind of experiment: 3H-cGAMP filtration binding assay (HAQ STING). As to conditions: for EC50: competition with tritiated cGAMP, HAQ STING membrane; for inhibition at 2 µM: at 2,000 nM compound. A digest of the protocol: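 Hi-Five (T. ni) membranes overexpressing the STING variant (2.2 ug/ml working) preincubated with compound 60 min at RT in PBS, then [3H]cGAMP (8 nM working stock) added for 60 min at RT. Bound radioactivity captured on GF/B filters and counted by scintillation; EC50 from 4-parameter fit of control-normalized activity.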

Experiment [2] concerns secretion of interferon-beta from THP1 cells. Kind of experiment: IFN-β secretion in THP1 cell culture (5 h). In kind it is cell-based. As to conditions: Homo sapiens, THP-1, 5 h, 30 uM cGAMP = 100%; for activation at 30 µM: compound at 30 μM, read-out: % Effect at 30 μM relative to 2′3′-cGAMP; for activation at 3 µM: compound at 3 uM, read-out: % Effect relative to 2′3′-cGAMP (@ 3 uM). The method, boiled down:
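IFN-β in supernatant measured by AlphaLISA after a 5 h, 37 °C incubation of THP1 cells with compound (10 concentrations, 30000 down to 1.5 nM, 0.3% DMSO) in low-serum RPMI. Values scaled between DMSO and 30 uM cGAMP controls; 4-parameter curve fit yields EC50.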

In experiment [3] the target is T2, full-length WT STING (Homo sapiens, UniProt Q86WV6, H232R).
T2 construct: AviTag (after gg linker) (C); HRV3C cleavage site (after gs linker) (C); HIS8 (C); made in house; host or cells: Trichoplusia ni (Hi-Five) insect cells infected with baculovirus (virus generated and amplified in Sf21 cells); used as a washed membrane preparation
T2 sequence (Q86WV6 with tags, fused parts or gaps H232R): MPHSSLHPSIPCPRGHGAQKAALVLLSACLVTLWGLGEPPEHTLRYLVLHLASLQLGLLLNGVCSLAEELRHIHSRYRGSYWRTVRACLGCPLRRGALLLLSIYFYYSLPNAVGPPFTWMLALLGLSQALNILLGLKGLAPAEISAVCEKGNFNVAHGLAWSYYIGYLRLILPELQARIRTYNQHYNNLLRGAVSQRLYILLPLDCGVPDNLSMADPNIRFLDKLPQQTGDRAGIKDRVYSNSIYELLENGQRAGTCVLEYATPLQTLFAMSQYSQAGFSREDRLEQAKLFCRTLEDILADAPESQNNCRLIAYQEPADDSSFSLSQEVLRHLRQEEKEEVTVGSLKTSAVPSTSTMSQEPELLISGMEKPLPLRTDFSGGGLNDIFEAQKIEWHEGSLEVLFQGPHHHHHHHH
Description: 3H-cGAMP filtration binding assay (WT STING). As to conditions: for EC50: competition with tritiated cGAMP, WT STING membrane; for inhibition at 2 µM: at 2,000 nM compound. A digest of the protocol:
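EC50 values come from 4-parameter fits of remaining filter-bound tritium versus log concentration (10-point, 1:3 dilution). Insect-cell membranes carrying full-length WT STING were incubated 60 min at RT with compound and tritiated cGAMP (16 nM working stock) before filtration.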

T1 sequence (Q86WV6 with tags, fused parts or gaps R71H/G230A/H232R/R293Q): as the sequence (Q86WV6 with tags, fused parts or gaps H232R) above, with R71H, G230A, R293Q counted along it

Regarding `COc1cc2sc(C[C@@H]3CC[C@H]3C(=O)O)cc2c(F)c1OCCCCOc1c(OC)cc2sc(C(=O)C[C@H](C)C(=O)O)cc2c1F` [Example 136, 2-((5-(4-((2-((S)-3-carboxybutanoyl)-4-fluoro-6-methoxybenzo[b]thiophen-5-yl)oxy)butoxy)-4-fluoro-6-methoxybenzo[b]thiophen-2-yl)methyl)cyclo-butanecarboxylic acid], the half-maximal effective concentration (EC50) in experiment [1] was found to be 314 nM; in experiment [3], 10300 nM. Further, in experiment [2], the activation at 30 µM was found to be 37%.
For `COc1cc2sc(C(=O)C[C@H](C)C(=O)O)cc2c(F)c1OCCCOc1c(OC)c(Cl)c2sc(C(=O)C[C@H](C)C(=O)O)cc2c1Cl` [Example 137, (S)-4-(5-(3-((2-((S)-3-carboxybutanoyl)-4,7-dichloro-6-methoxybenzo[b]thiophen-5-yl)oxy)propoxy)-4-fluoro-6-methoxybenzo[b]thiophen-2-yl)-2-methyl-4-oxobutanoic acid], the EC50 was 40 nM in experiment [1] and 319 nM in experiment [3]. For the same compound, the activation at 30 µM in experiment [2] was 155%.
For `COc1cc2sc(C(=O)C[C@H](C)C(=O)O)cc2c(F)c1OCCC(C)Oc1c(OC)cc2sc(C(=O)C[C@H](C)C(=O)O)cc2c1F` (stereo partly drawn) [Example 138, (2S,2′S)-4,4′-((butane-1,3-diylbis(oxy))bis(4-fluoro-6-methoxybenzo[b]thiophene-5,2-diyl))bis(2-methyl-4-oxobutanoic acid)] the same measures were 2 nM, 2 nM and 89%.
Turning to `COc1cc2sc(C(=O)C[C@H](C)C(=O)O)cc2c(F)c1OCCCC(C)Oc1c(OC)cc2sc(C(=O)C[C@H](C)C(=O)O)cc2c1F` (stereo partly drawn) [Example 139, (2S,2′S)-4,4′-((pentane-1,4-diylbis(oxy))bis(4-fluoro-6-methoxybenzo[b]thiophene-5,2-diyl))bis(2-methyl-4-oxobutanoic acid)], the values for the concentration for a half-maximal effect (EC50) in experiment [1] and in experiment [3] were 3 nM and 12 nM, respectively. For the same compound, the activation at 30 µM in experiment [2] stood at 57%.
In experiment [1], `COc1cc2sc(C(=O)C[C@H](C)C(=O)O)cc2c(F)c1OC(C)CCC(C)Oc1c(OC)cc2sc(C(=O)C[C@H](C)C(=O)O)cc2c1F` (stereo partly drawn) [Example 140, (2S,2′S)-4,4′-((hexane-2,5-diylbis(oxy))bis(4-fluoro-6-methoxybenzo[b]thiophene-5,2-diyl))bis(2-methyl-4-oxobutanoic acid)] registered an EC50 of 2150 nM. In experiment [2], the activation at 3 µM was 31%. In experiment [3] (at 7,000 nM compound), at 7 µM the inhibition was 28%.
As to `COc1cc2sc(C(=O)C[C@H](C)C(=O)O)cc2c(F)c1OCC(C)COc1c(OC)cc2sc(C(=O)C[C@H](C)C(=O)O)cc2c1F` [Example 142, (2S,2′S)-4,4′-(((2-methylpropane-1,3-diyl)bis(oxy))bis(4-fluoro-6-methoxybenzo[b]thiophene-5,2-diyl))bis(2-methyl-4-oxobutanoic acid)], the 50% effective concentration (EC50) in experiment [1] and in experiment [3] was 1 nM in each case. The activation at 30 µM in experiment [2] was 81%.
As to `COc1cc2sc(C(=O)C[C@H](C)C(=O)O)cc2c(F)c1OCC(C)(C)COc1c(OC)cc2sc(C(=O)C[C@H](C)C(=O)O)cc2c1F` [Example 143, (2S,2′S)-4,4′-(((2,2-dimethylpropane-1,3-diyl)bis(oxy))bis(4-fluoro-6-methoxybenzo[b]thiophene-5,2-diyl))bis(2-methyl-4-oxobutanoic acid)], the values for the EC50 in experiment [1] and in experiment [3] were 75 nM and 1450 nM, respectively. In experiment [2], the activation at 3 µM was determined as 26%.
Take `COc1cc2sc(C(=O)C[C@H](C)C(=O)O)cc2c(F)c1OCC1(COc2c(OC)cc3sc(C(=O)C[C@H](C)C(=O)O)cc3c2F)CC1` [Example 144, (2S,2′S)-4,4′-(((cyclopropane-1,1-diylbis-(methylene))bis (oxy))bis(4-fluoro-6-methoxybenzo[b]thiophene-5,2-diyl))bis(2-methyl-4-oxobutanoic acid)]: the figures for the EC50 in experiment [1] and in experiment [3] were 15 nM and 93 nM, respectively. Besides, the activation at 30 µM in experiment [2] amounted to 8%.
In experiment [1], `COc1cc2sc(CC[C@H](C)C(=O)O)cc2cc1OCCCOc1c(OC)cc2sc(C(=O)C[C@H](C)C(=O)O)cc2c1Cl` [Example 145, (S)-4-(5-(3-((2-((S)-3-carboxybutyl)-6-methoxybenzo[b]thiophen-5-yl)oxy)propoxy)-4-chloro-6-methoxybenzo[b]thiophen-2-yl)-2-methyl-4-oxobutanoic acid] gave an EC50 of 143 nM. Further, the activation at 3 µM in experiment [2] was found to be 59%. This compound also showed an inhibition at 2 µM in experiment [3] of 47%.
Turning to `COc1cc2sc(CC[C@H](C)C(=O)O)cc2cc1OCCCOc1c(OC)cc2sc(C(=O)C[C@H](C)C(=O)O)cc2c1Br` [Example 146, (S)-4-(4-bromo-5-(3-((2-((S)-3-carboxybutyl)-6-methoxybenzo[b]thiophen-5-yl)oxy)propoxy)-6-methoxybenzo[b]thiophen-2-yl)-2-methyl-4-oxobutanoic acid], the inhibition at 2 µM in experiment [1] is 55%; in experiment [3], 18%. The activation at 3 µM in experiment [2] is 27%.
As for `COc1cc2sc(CC[C@H](C)C(=O)O)cc2c(F)c1OCCCOc1c(OC)cc2sc(C(=O)C[C@H](C)C(=O)O)cc2c1Cl` [Example 147, (S)-4-(5-(3-((2-((S)-3-carboxybutyl)-4-fluoro-6-methoxybenzo[b]thiophen-5-yl)oxy)propoxy)-4-chloro-6-methoxybenzo[b]thiophen-2-yl)-2-methyl-4-oxobutanoic acid], the EC50 in experiment [1] is 18 nM; in experiment [3] it was 207 nM. Moreover, in experiment [2], the activation at 3 µM is 71%.
For `COc1cc2sc(CC[C@H](C)C(=O)O)cc2c(F)c1OCCCOc1c(OC)cc2sc(C(=O)C[C@H](C)C(=O)O)cc2c1Br` [Example 148, (S)-4-(4-bromo-5-(3-((2-((S)-3-carboxybutyl)-4-fluoro-6-methoxybenzo[b]thiophen-5-yl)oxy)propoxy)-6-methoxybenzo[b]thiophen-2-yl)-2-methyl-4-oxobutanoic acid] the same measures were 395 nM, 411 nM and 41%.
Taken in the same sequence, the figures for `COc1cc2sc(CCC(C)(C)C(=O)O)cc2c(F)c1OCCCOc1c(OC)cc2sc(C(=O)CC(C)(C)C(=O)O)cc2c1F` [Example 149, 4-(5-(3-((2-(3-carboxy-3-methylbutyl)-4-fluoro-6-methoxybenzo[b]thiophen-5-yl)oxy)propoxy)-4-fluoro-6-methoxybenzo[b]thiophen-2-yl)-2,2-dimethyl-4-oxobutanoic acid] were 4 nM, 46 nM and 70%.
For `COc1cc2sc(C(=O)C[C@H](C)C(=O)O)cc2cc1OCCCOc1c(OC)cc2sc(CC[C@H](C)C(=O)O)cc2c1Cl` [Example 150, (S)-4-(5-(3-((2-((S)-3-carboxybutyl)-4-chloro-6-methoxybenzo[b]thiophen-5-yl)oxy)propoxy)-6-methoxybenzo[b]thiophen-2-yl)-2-methyl-4-oxobutanoic acid] the same measures were 213 nM, 1040 nM and 52%.
As for `COc1cc2sc(C(=O)C[C@H](C)C(=O)O)cc2c(F)c1OCCCOc1c(OC)cc2sc(CC[C@H](C)C(=O)O)cc2c1Cl` [Example 151, (S)-4-(5-(3-((2-((S)-3-carboxybutyl)-4-chloro-6-methoxybenzo[b]thiophen-5-yl)oxy)propoxy)-4-fluoro-6-methoxybenzo[b]thiophen-2-yl)-2-methyl-4-oxobutanoic acid], the figures for the EC50 in experiment [1] and in experiment [3] were 77 nM and 1040 nM, respectively. In addition, in experiment [2], the activation at 3 µM was 63%.
In the case of `COc1cc2sc(CC[C@H](C)C(=O)O)cc2c(Cl)c1OCCCOc1c(OC)cc2sc(C(=O)C[C@H](C)C(=O)O)cc2c1Cl` [Example 152, (S)-4-(5-(3-((2-((S)-3-carboxybutyl)-4-chloro-6-methoxybenzo[b]thiophen-5-yl)oxy)propoxy)-4-chloro-6-methoxybenzo[b]thiophen-2-yl)-2-methyl-4-oxobutanoic acid], the figures for the inhibition at 2 µM in experiment [1] and in experiment [3] were 35% and 3%, respectively. The activation at 3 µM in experiment [2] amounted to 7%.
For `COc1cc2sc(C(=O)C[C@H](C)C(=O)O)cc2c(Cl)c1OCCOc1c(OC)cc2sc(C(=O)C[C@H](C)C(=O)O)cc2c1Cl` [Example 153, (2S,2′S)-4,4′-((ethane-1,2-diylbis(oxy))bis(4-chloro-6-methoxybenzo[b]thiophene-5,2-diyl))bis(2-methyl-4-oxobutanoic acid)], the EC50 in experiment [1] was 3 nM; in experiment [3], 10 nM. Also, the activation at 3 µM in experiment [2] was determined as 137%.

For the origin of these results see patent US10793557B2, “Sting agonist compounds” (Merck Sharp & Dohme Corp., priority 2018, dated 2020).
